The record followed here is article PMC11642016 (International Journal of Molecular Sciences, 2024).

Data set [1] has as its system Fadu cells. In words: CellTiter-Glo luminescent cell viability assay, Fadu. The following applies: 72 h, 72 h, second-set screening, mean ± SD, n = 2; for viability at 2.8 µM / viability at 8.3 µM / viability at 25 µM: Homo sapiens, FaDu; for viability at 2.8 µM: read-out: Cell Viability (% of Control) 2.8 µM, Fadu; for viability at 8.3 µM: read-out: Cell Viability (% of Control) 8.3 µM, Fadu; for viability at 25 µM: read-out: Cell Viability (% of Control) 25 µM, Fadu.

The subject of data set [2] is PANC-1 cells. Description: CellTiter-Glo luminescent cell viability assay, PANC-1. Conditions: 72 h, second-set screening, mean ± SD, n = 2; for viability at 2.8 µM / viability at 8.3 µM / viability at 25 µM: Homo sapiens, PANC-1, 72 h; for viability at 2.8 µM: read-out: Cell Viability (% of Control) 2.8 µM, PANC-1; for viability at 8.3 µM: read-out: Cell Viability (% of Control) 8.3 µM, PANC-1; for viability at 25 µM: read-out: Cell Viability (% of Control) 25 µM, PANC-1.

Structures are written as SMILES.

Turning to `O=C1C2=C(CCN(Cc3ccc(-n4cc(-c5ccccc5)nn4)cc3)C2)N2CCN=C2N1Cc1cccc(C#CCN2CCCCC2)c1` [40b], the viability (usually a read-out of living cells in per cent, often relative to untreated cells) at 2.8 µM in data set [1] (2.8 µM) stood at 92 ± 9%; in data set [2] (2.8 µM), 125 ± 5%. For the same compound, the viability at 8.3 µM turned out to be 60 ± 3% in data set [1] (8.3 µM) and 12 ± 10% in data set [2] (8.3 µM). Besides, the values for the viability at 25 µM in data set [1] (25 µM) and in data set [2] (25 µM) were 24 ± 11% and 1 ± 1%, respectively.
`CN1CCN(CC#Cc2cccc(CN3C(=O)C4=C(CCN(Cc5ccc(-n6cc(-c7ccccc7)nn6)cc5)C4)N4CCN=C34)c2)CC1` [41b]: the figures for the viability at 2.8 µM in data set [1] (2.8 µM) and in data set [2] (2.8 µM) were 106 ± 1% and 110 ± 6%, respectively. In addition, the viability at 8.3 µM stood at 30 ± 28% in data set [1] (8.3 µM) and 0% in data set [2] (8.3 µM). The viability at 25 µM in data set [1] (25 µM) worked out at 3 ± 1%; in data set [2] (25 µM) it was 0%.
Take `O=C1C2=C(CCN(Cc3ccc(-n4cc(-[c-]5cccc5)nn4)cc3)C2)N2CCN=C2N1Cc1cccc(C#CCN2CCOCC2)c1.[Fe+2].c1cc[cH-]c1` [42a]: the “Cell Viability (% of Control) 2.8 µM” value is 121 ± 3 % of Control in data set [1] (Fadu, 2.8 µM) and 132 ± 4 % of Control in data set [2] (PANC-1, 2.8 µM). Moreover, the “Cell Viability (% of Control) 8.3 µM” value is listed as 112 ± 11 % of Control in data set [1] (Fadu, 8.3 µM) and 75 ± 31 % of Control in data set [2] (PANC-1, 8.3 µM). For the same compound, the “Cell Viability (% of Control) 25 µM” value was 55 ± 12 % of Control in data set [1] (Fadu, 25 µM) and 58 ± 36 % of Control in data set [2] (PANC-1, 25 µM).
In the case of `O=C1C2=C(CCN(Cc3ccc(-n4cc(-c5ccccc5)nn4)cc3)C2)N2CCN=C2N1Cc1cccc(C#CCN2CCOCC2)c1` [42b], the viability at 2.8 µM in data set [1] (2.8 µM) is 108 ± 7%; in data set [2] (2.8 µM) it was 94 ± 5%. Further, the results for the viability at 8.3 µM in data set [1] (8.3 µM) and in data set [2] (8.3 µM) were 91 ± 12% and 82 ± 5%, respectively. Also, the viability at 25 µM in data set [1] (25 µM) is 13 ± 6%; in data set [2] (25 µM), 59 ± 3%.
